Experimental data as given in PubChem BioAssay AID179 (DTP/NCI, 2004).
Several values for one entry are separate records, joined by “and”; a condition that tells them apart may be missing. Equal entries are not always repeated. Activity calls are given as the source filed them.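 The calls were made as follows: active = compounds giving half or more protection of infected cells from virus-caused growth loss, again on retest; inactive = the rest.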 Where a SMILES comes first, the peptide text is derived from it. The star is where a group is joined. Cbz = O=C(OCc1ccccc1)*

System: CEM cells HIV-1 protection, formazan growth assay
Experiment: NCI AIDS Antiviral Assay
Details: for IC50: measured here: growth of uninfected CEM cells
Method in brief: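 Human CEM cells, uninfected and HIV-1-infected, received five drug concentrations, and growth was read by soluble formazan assay. Compounds giving at least 50% protection were retested; reproducible 100% protection defined confirmed active.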

SMILES	EC50	IC50	outcome
COc1cc(C)c(O)c(C/C=C(\C)CC2=C[C@@]3(C)CCC[C@@]3(C)[C@]3(C=CC(C)(C)O3)O2)c1	> 40.7 µM	11 µM	–
Cc1cn(C2CC(COCc3ccccc3)N(CCO)O2)c(=O)[nH]c1=O (stereo not given)	> 200 µM	> 200 µM	–
CC1=C(C(=O)Nc2ccccc2C)C(c2ccc(Cl)c(Cl)c2)C(C(=O)Nc2ccccc2C)=C(C)N1	–	–	inactive
Cc1cc(S(=O)(=O)Nc2nnc3c(Cl)cc(C(F)(F)F)cn23)c(S)cc1Cl	70.8 µM	380 µM	–
CC(CO)(CO)N1C(=O)C2C3c4ccccc4C(c4ccccc43)C2C1=O (stereo not given)	> 200 µM	> 200 µM	–
O=S(=O)(c1cc(Cl)ccc1Cl)N1CCN(c2ccc(Cl)c(Cl)c2)CC1	> 200 µM	> 200 µM	–
O=c1ccn(CC2OCC(CO)O2)c(=O)[nH]1 (stereo not given)	> 2750 µM	1150 µM and > 2750 µM	–
NC(=O)CCN(CCC(N)=O)CCC(N)=O	> 200 µM	> 200 µM	–
S=C1Cc2c(-c3ccccc3)cc(-c3ccc(Cl)cc3)nc2-c2ccccc2N1	> 200 µM	3.39 µM	–
COc1cc([C@@H]2c3cc(O)c(OC)cc3C=C(C(N)=O)[C@H]2C(N)=O)ccc1O	> 0.2 µM	0.0102 µM	–
O=c1oc2ccccc2n1P(=O)(N1CCOCC1)N1CCOCC1	> 251 µM	> 251 µM	–
CCOC(=O)C(CC(=O)OC)NC(=O)C(CC(=O)OC)NC(=O)C(CC(=O)OC)NC(=O)C(CC(=O)OC)NC(=O)OCc1ccccc1 (stereo not given) (Cbz-D(OMe)D(OMe)D(OMe)D(OMe)-OEt; configuration not given here)	> 200 µM	> 200 µM	–
CCCCC(C(=O)C(=O)Nc1ccccc1CC)C(=O)C(C)C (stereo not given)	–	–	inactive
CC(=O)Nc1ccc(-c2nnc(SCC(=O)Nc3ccc(C)cc3)o2)cc1	> 67.6 µM	11.7 µM	–
S=c1nn[nH]n1-c1ccccc1.[Zn+2]	> 2.57 µM	> 2.57 µM	–
COc1cc2c(cc1OCc1ccccc1)CNCC2	> 794 µM	145 µM	–
O=C(O)CCCCCCCCCOc1ccccc1	> 200 µM	40.7 µM	–
CN(C(=O)c1ccc(Cl)cc1)C(=S)N1CCN(c2ccccn2)CC1	> 69.2 µM	61.7 µM	–
Cn1cnc(=S)c2ccccc21	> 200 µM	> 200 µM	–
COc1ccc(-c2c(C(C)=O)c(C)n(C3OC(COC(C)=O)C(OC(C)=O)C(OC(C)=O)C3OC(C)=O)c(=S)c2C#N)cc1 (stereo not given)	> 200 µM	87.1 µM	–
CC(C)(C)[Si](C)(C)OCC1OC(n2cnc3c(=O)[nH]c(NC(=O)c4ccccc4)nc32)C(O[Si](C)(C)C(C)(C)C)C1O[Si](C)(C)C(C)(C)C (stereo not given)	> 200 µM	9.12 µM	–
